Experimental findings from patent publication EP4768484A1, “HETEROCYCLIC FUSED RING COMPOUND, AND COMPOSITION AND USE THEREOF” (Shenzhen TargetRx, Inc., priority 2023, dated 2025) are described below.

Bounds are passed on as bounds.

Common to all, as to type: cell-based
One assay relates to K562 cells. The assay is described as follows: Cell growth inhibitory activity assay (CellTiter-Glo), K562 cells. The following applies: Homo sapiens, 72 h, CTG cell viability. The method, then:
(§1) In this assay, the Celltiter-Glo (CTG) kit provided by Promega was used, and it is a homogeneous cell viability assay method. The cell viability of cultured cells was measured by quantifying ATP. K562 cells were purchased from Nanjing Kebai, product number CBP60529; Ba/F3 parental cells were purchased from RIKEN BRC, product number RCB0805; other cells containing BCR-ABL1 WT, BCR-ABL1 T315I, BCR-ABL1 T315M, BCR-ABL1 Y253H/E255K, BCR-ABL1 E255V/T3151, BCR-ABL1 A424T, BCR-ABL1 A337V, BCR-ABL1 P465S, BCR-ABL1 V468F, and BCR-ABL1 I502L were all monoclonal engineered cell lines obtained by transducting Ba/F3 parental cells with the lentivirus plasmids containing WT or corresponding mutated BCR-ABL1.
(§2) The steps of cell viability assay are as follows: • a) Cells in logarithmic growth phase were collected. Cell suspension was prepared and the cells were counted. Concentration of the cells was calculated. • b) The cell suspension was diluted to the required concentration and then added to the middle wells of a 96-well plate, and PBS was added to the edge wells. The wells with no cells and only culture medium were used as blank controls. • c) In addition to the cell plate used for compound analysis, another 96-well plate was prepared as a T0 plate, and 3-6 blank wells and 3-6 cell wells were added. The next day, CTG was used to test the cell viability as the T0 viability value of the cells. • d) The cell plate was incubated at 37 °C in a 5% CO2 incubator overnight. • e) The next day, each concentration of a compound subjected to a gradient dilution was added, and the cell plate was incubated at 37 °C in a 5% CO2 incubator for 72 h. The wells with no compound and only 0.5% DMSO were used as positive controls for cell growth. • f) CTG reagent (CellTiter-Glo kit) was added according to the manufacturer's instructions to test the cell viability value. • g) The plate was read using Biotek cytation3.0 microplate reader and the data were exported. • h) IC50 was calculated using GraphPad Prism 7.0 software.
(§3) The IC50 (half-maximal inhibitory concentration) of the compound was obtained using the following nonlinear fitting formula: Y = Bottom + (Top−Bottom)/(1+10^(∧)((LogIC50−X)*HillSlope)) [formula] • X: Log value of the compound concentration • Y: Inhibition rate (% inhibition) • Top: Maximum response • Bottom: Baseline response • HillSlope: Slope of the curve
(§4) The formula for calculating cell inhibition rate (inhibition rate %) was: [formula]
A general note: Cellular ATP, detected with luciferase, serves as a proxy for viable cell number.

The next assay has as its target T1, Ba/F3 BCR-ABL1 WT (Homo sapiens, UniProt P00519+P11274).
T1 construct: BCR (N-terminal fusion partner of the oncoprotein); expressed in transfected cells; host or cells: Ba/F3 (lentiviral transduction, monoclonal line)
The assay is described as follows: Cell growth inhibitory activity assay (CellTiter-Glo), Ba/F3 BCR-ABL1 WT cells. To be noted: 72 h, CTG cell viability. On the procedure:
as §1, §2, §3, §4

For the next assay, the target named is T2, Ba/F3 BCR-ABL1 T315I (Homo sapiens, UniProt P00519+P11274, T315I).
T2 construct: BCR (N-terminal fusion partner of the oncoprotein); expressed in transfected cells; host or cells: Ba/F3 (lentiviral transduction, monoclonal line)
The assay is described as follows: Cell growth inhibitory activity assay (CellTiter-Glo), Ba/F3 BCR-ABL1 T315I cells. The following applies: 72 h, CTG cell viability. The method, then:
as §1, §2, §3, §4

The next assay relates to Ba/F3 parental cells. The assay is described as follows: Cell growth inhibitory activity assay (CellTiter-Glo), Ba/F3 parental cells. The following applies: Mus musculus, BaF3, 72 h, CTG cell viability, read-out: IC50 Ba/F3 BCR-ABL1 Parental. The method, then:
as §1, §2, §3, §4

For the molecule `CN1Cc2ncc(-c3cc(C(=O)Nc4ccc(OC(F)(F)Cl)cc4)cc4c3C3(CCCCC3)C(=O)N4)cc2C1=O` [T-8, N-(4-(chlorodifluoromethoxy)phenyl)-4'-(6-methyl-5-oxo-6,7-dihydro-5H-pyrrolo[3,4-b]pyridin-3-yl)-2'-oxospiro[cyclohexane-1,3'-indoline]-6'-carboxamide], the IC50 was at most 5 nM in the assay with K562 cells, at most 5 nM against Ba/F3 BCR-ABL1 WT, 5 to 50 nM on Ba/F3 BCR-ABL1 T315I and over 1000 nM in the assay on Ba/F3 parental cells.
As to `O=C(Nc1ccc(OC(F)(F)Cl)cc1)c1cnc(N2CC[C@@H](F)C2)c(-c2cnc3c(c2)-c2nn(-c4nccc(-c5cccnc5)n4)cc2C3)c1` [T-9, (R)-N-(4-(chlorodifluoromethoxy)phenyl)-6-(3-fluoropyrrolidin-1-yl)-5-(2-(4-(pyridin-3-yl)pyrimidin-2-yl)-2,4-dihydropyrazolo[3',4':3,4]cyclopenta[1,2-b]pyridin-7-yl)nicotinamide], the IC50 in the assay on K562 cells is at most 5 nM; against Ba/F3 BCR-ABL1 WT, at most 5 nM; at Ba/F3 BCR-ABL1 T315I, at most 5 nM; in the assay with Ba/F3 parental cells, over 1000 nM.
Take `CC(C)n1ncc2c1-c1cc(-c3cc(C(=O)Nc4ccc(OC(F)(F)Cl)cc4)cnc3N3CC[C@@H](F)C3)cnc1C2` [T-10-A, (R)-N-(4-(chlorodifluoromethoxy)phenyl)-6-(3-fluoropyrrolidin-1-yl)-5-(1-isopropyl-1,4-dihydropyrazolo[3',4':3,4]cyclopenta[1,2-b]pyridin-7-yl)nicotinamide]: the IC50 in the assay with K562 cells was at most 5 nM; on Ba/F3 BCR-ABL1 WT, 5 to 50 nM; against Ba/F3 BCR-ABL1 T315I, 5 to 50 nM; in the assay on Ba/F3 parental cells it was over 1000 nM.
For the molecule `CC(C)n1cc2c(n1)-c1cc(-c3cc(C(=O)Nc4ccc(OC(F)(F)Cl)cc4)cnc3N3CC[C@@H](F)C3)cnc1C2` [T-10-B, (R)-N-(4-(chlorodifluoromethoxy)phenyl)-6-(3-fluoropyrrolidin-1-yl)-5-(2-isopropyl-2,4-dihydropyrazolo[3',4':3,4]cyclopenta[1,2-b]pyridin-7-yl)nicotinamide], the IC50 in the assay on K562 cells was at most 5 nM; against Ba/F3 BCR-ABL1 WT, at most 5 nM; against Ba/F3 BCR-ABL1 T315I, at most 5 nM; with Ba/F3 parental cells it was over 1000 nM.
Turning to `O=C(Nc1ccc(OC(F)(F)Cl)cc1)c1cnc(N2CC[C@H](F)C2)c(-c2cnc3c(c2)-c2nn(-c4ncc(F)cn4)cc2C3)c1` [T-13, (S)-N-(4-(chlorodifluoromethoxy)phenyl)-5-(2-(5-fluoropyrimidin-2-yl)-2,4-dihydropyrazolo[3',4':3,4]cyclopenta[1,2-b]pyridin-7-yl)-6-(3-fluoropyrrolidin-1-yl)nicotinamide], the IC50 in the assay on K562 cells was at most 5 nM; against Ba/F3 BCR-ABL1 WT, at most 5 nM; against Ba/F3 BCR-ABL1 T315I, at most 5 nM; in the assay with Ba/F3 parental cells, over 1000 nM.
`Cc1cnc(-n2cc3c(n2)-c2cc(-c4cc(C(=O)Nc5ccc(OC(F)(F)Cl)cc5)cnc4N4CC[C@@H](F)C4)cnc2C3)nc1` [T-14, (R)-N-(4-(chlorodifluoromethoxy)phenyl)-6-(3-fluoropyrrolidin-1-yl)-5-(2-(5-methylpyrimidin-2-yl)-2,4-dihydropyrazolo[3',4':3,4]cyclopenta[1,2-b]pyridin-7-yl)nicotinamide]: the IC50 in the assay with K562 cells is at most 5 nM; against Ba/F3 BCR-ABL1 WT it was at most 5 nM; against Ba/F3 BCR-ABL1 T315I, at most 5 nM; in the assay with Ba/F3 parental cells it was over 1000 nM.
Regarding `O=C(Nc1ccc(OC(F)(F)Cl)cc1)c1cnc(N2CC[C@@H](F)C2)c(-c2cnc3c(c2)-c2nn(-c4ncc(C(F)(F)F)cn4)cc2C3)c1` [T-15, (R)-N-(4-(chlorodifluoromethoxy)phenyl)-6-(3-fluoropyrrolidin-1-yl)-5-(2-(5-(trifluoromethyl)pyrimidin-2-yl)-2,4-dihydropyrazolo[3',4':3,4]cyclopenta[1,2-b]pyridin-7-yl)nicotinamide], the IC50 in the assay on K562 cells was at most 5 nM; against Ba/F3 BCR-ABL1 WT, at most 5 nM; against Ba/F3 BCR-ABL1 T315I it was 5 to 50 nM; in the assay with Ba/F3 parental cells, over 1000 nM.
With `C[C@@H]1COCc2nc3cc(C(=O)Nc4ccc(OC(F)(F)Cl)cc4)cc(-c4cnc5c(c4)-c4nn(C)cc4C5)c3n21` [T-16, (R)-N-(4-(chlorodifluoromethoxy)phenyl)-4-methyl-6-(2-methyl-2,4-dihydropyrazolo[3',4':3,4]cyclopenta[1,2-b]pyridin-7-yl)-3,4-dihydro-1H-benzo[4,5]imidazo[2,1-c][1,4]oxazine-8-carboxamide], the IC50 in the assay on K562 cells was at most 5 nM; against Ba/F3 BCR-ABL1 WT it was at most 5 nM; against Ba/F3 BCR-ABL1 T315I it was at most 5 nM; in the assay with Ba/F3 parental cells, over 1000 nM.
For `COc1cnc(-n2cc3c(n2)-c2cc(-c4cc(C(=O)Nc5ccc(OC(F)(F)Cl)cc5)cnc4N4CC[C@@H](F)C4)cnc2C3)nc1` [T-17, (R)-N-(4-(chlorodifluoromethoxy)phenyl)-6-(3-fluoropyrrolidin-1-yl)-5-(2-(5-methoxypyrimidin-2-yl)-2,4-dihydropyrazolo[3',4':3,4]cyclopenta[1,2-b]pyridin-7-yl)nicotinamide], the IC50 with K562 cells was at most 5 nM; against Ba/F3 BCR-ABL1 WT it was at most 5 nM; against Ba/F3 BCR-ABL1 T315I, at most 5 nM; in the assay on Ba/F3 parental cells it was over 1000 nM.
With `N#Cc1ccc(-c2ccnc(-n3cc4c(n3)-c3cc(-c5cc(C(=O)Nc6ccc(OC(F)(F)Cl)cc6)cnc5N5CC[C@@H](F)C5)cnc3C4)n2)cn1` [T-19, (R)-N-(4-(chlorodifluoromethoxy)phenyl)-5-(2-(4-(6-cyanopyridin-3-yl)pyrimidin-2-yl)-2,4-dihydropyrazolo[3',4':3,4]cyclopenta[1,2-b]pyridin-7-yl)-6-(3-fluoropyrrolidin-1-yl)nicotinamide], the IC50 with K562 cells is at most 5 nM; at Ba/F3 BCR-ABL1 WT, at most 5 nM; against Ba/F3 BCR-ABL1 T315I, at most 5 nM; in the assay with Ba/F3 parental cells, over 1000 nM.
Consider `O=C(Nc1ccc(OC(F)(F)Cl)cc1)c1cnc(N2CC[C@@H](F)C2)c(-c2cnc3c(c2)-c2nn(-c4nccc(-c5cncnc5)n4)cc2C3)c1` [T-22], for which the IC50 with K562 cells was at most 5 nM; at Ba/F3 BCR-ABL1 WT it was at most 5 nM; on Ba/F3 BCR-ABL1 T315I, at most 5 nM; in the assay with Ba/F3 parental cells, over 1000 nM.
As for `CC(C)n1cnc2cc(C(=O)Nc3ccc(OC(F)(F)Cl)cc3)cc(-c3cnccn3)c21` [T-23, N-(4-(chlorodifluoromethoxy)phenyl)-1-isopropyl-7-(pyrazin-2-yl)-1H-benzo[d]imidazole-5-carboxamide], the IC50 in the assay on K562 cells was 5 to 50 nM; on Ba/F3 BCR-ABL1 WT, at most 5 nM; against Ba/F3 BCR-ABL1 T315I, 50 to 1000 nM; with Ba/F3 parental cells, over 1000 nM.
`C[C@@H]1CCOc2nc3cc(C(=O)Nc4ccc(OC(F)(F)Cl)cc4)cc(-c4cnc5c(c4)C(=O)N(C)C5)c3n21` [T-24, (R)-N-(4-(chlorodifluoromethoxy)phenyl)-4-methyl-6-(6-methyl-5-oxo-6,7-dihydro-5H-pyrrolo[3,4-b]pyridin-3-yl)-3,4-dihydro-2H-benzo[4,5]imidazo[2,1-b][1,3]oxazine-8-carboxamide]: the IC50 with K562 cells was at most 5 nM; at Ba/F3 BCR-ABL1 WT it was 5 to 50 nM; at Ba/F3 BCR-ABL1 T315I, 50 to 1000 nM; with Ba/F3 parental cells, over 1000 nM.
For `Cn1ccc(-c2ccnc(-n3cc4c(n3)-c3cc(-c5cc(C(=O)Nc6ccc(OC(F)(F)Cl)cc6)cnc5N5CC[C@@H](F)C5)cnc3C4)n2)n1` [T-26, (R)-N-(4-(chlorodifluoromethoxy)phenyl)-6-(3-fluoropyrrolidin-1-yl)-5-(2-(4-(1-methyl-1H-pyrazol-3-yl)pyrimidin-2-yl)-2,4-dihydropyrazolo[3',4':3,4]cyclopenta[1,2-b]pyridin-7-yl)nicotinamide] the same measures were at most 5 nM, at most 5 nM, at most 5 nM and over 1000 nM.
The matching figures for `O=C(Nc1ccc(OC(F)(F)Cl)cc1)c1cnc(N2CC[C@@H](F)C2)c(-c2cnc3c(c2)-c2nn(-c4ncc5ccccc5n4)cc2C3)c1` [T-29, (R)-N-(4-(chlorodifluoromethoxy)phenyl)-6-(3-fluoropyrrolidin-1-yl)-5-(2-(quinazolin-2-yl)-2,4-dihydropyrazolo[3',4':3,4]cyclopenta[1,2-b]pyridin-7-yl)nicotinamide]: at most 5 nM, at most 5 nM, 5 to 50 nM and over 1000 nM.
